{
  "source": "patent US20240180920A1",
  "about": "“CERTAIN FASCIN BINDING COMPOUNDS FOR SPINOGENESIS” (Spinogenix, Inc., priority 2021, published 2024)",
  "key": {"[1]": {"system": "primary mouse hippocampal neurons", "experiment": "Synaptic density (colocalized PSD95/VGlut elements per length of dendrite) in treated neurons, FIG. 1", "assay_type": "cell-based", "conditions": "10 μM compared with 500 nM and 50 nM, 24 hours", "description": "Specifically, primary mouse hippocampal neurons were treated on day 14 in culture with one of the four compounds, each at concentrations of 10 μM, 500 nM, and 50 nM, or with control (vehicle (0.1% DMSO)) for 24 hours. Following the treatments, neurons were fixed in 4% paraformaldehyde and processed for staining with phalloidin and immunolabeling with antibodies to the postsynaptic marker PSD95, and the presynaptic marker VGlut. Images were acquired using a laser scanning confocal microscope and analyzed for the number of colocalized pre and post synaptic elements per length of dendrite. Studies were performed across 3 biological preparations of primary neurons, with a minimum of 12 dendritic segments analyzed per treatment/prep. Graphing and statistical analyses of synaptic density data were performed with Prism software."}, "[2]": {"biological_target": "fascin (Homo sapiens, UniProt Q16658)", "conditions": "stated as known; cited from earlier work"}, "[3]": {"biological_target": "fascin actin-binding site 2 (Homo sapiens, UniProt Q16658)", "conditions": "stated as known; cited from earlier work"}},
  "data": [
    {"smiles": "N=C(N)NCCCCC(=O)Nc1cc(C(F)(F)F)cc(NC(=O)c2cc(C(=O)Nc3cc(C(F)(F)F)cc(NC(=O)CCCCNC(=N)N)c3O[C@@H]3CCNC3)ncn2)c1O[C@@H]1CCNC1", "note": "(racemic) [brilacidin]", "values": [
      {"measurement": "concentration dependence of activity (synaptic density)", "setting": "[1]", "result": "higher activities at the concentration of 10 μM than at lower concentrations"}
    ]},
    {"smiles": "CN(C)CCCN1c2ccccc2CCc2ccccc21", "note": "[imipramine]", "values": [
      {"measurement": "effect on fascin's actin-bundling activity", "setting": "[2]", "result": "interact or inhibit fascin's actin-bundling activity"},
      {"measurement": "concentration dependence of activity (synaptic density)", "setting": "[1]", "result": "higher activities at the concentration of 10 μM than at lower concentrations"},
      {"measurement": "interaction with or binding to fascin", "setting": "[3]", "result": "known to interact with or bind fascin at actin-binding site 2"}
    ]},
    {"smiles": "C/C(=N\\NC(=N)N)c1cc(NC(=O)CCCCCCCCC(=O)Nc2cc(/C(C)=N/NC(=N)N)cc(/C(C)=N/NC(=N)N)c2)cc(/C(C)=N/NC(=N)N)c1", "note": "[semapimod]", "values": [
      {"measurement": "concentration dependence of activity (synaptic density)", "setting": "[1]", "result": "higher activities at the concentration of 10 μM than at lower concentrations"}
    ]}
  ]
}
